# Measured values taken from patent US20150141375A1 (priority 2009, published 2015).
# Read-outs that look alike come from different tables or passages of the source.
# What was measured:
# HSV-1 = test: microbe, parasite or virus in culture; format: cell-based
# HSV-2 = test: In vitro efficacy against HSV-2 strains in HFF (CPE, plaque reduction); format: cell-based
# From the text: In vitro screening by CPE assay in human foreskin fibroblast (HFF) cells with confirmation using plaque reduction assays in HFF.
# HSV-2, strain MS = test: Mortality of BALB/c mice infected intranasally with HSV-2, strain MS; format: in vivo
# Protocol: Animals: BALB/c, female mice, 3-4 weeks of age.
# Treatments were administered to mice for 7 consecutive days beginning 72 hr post viral inoculation by oral gavage using a 0.2 ml volume. CMX001 was administered once daily and ACV was given twice daily at approximately 12 hr intervals.
# Mortality rates analyzed by Fisher's exact test; Mean day of death (MDD) by Mann-Whitney U rank sum.
# Adenovirus = details: literature values; cited from earlier work
# [1] = SVG cell viability / cell number (MTS, alamar blue, hematoxylin); format: cell-based, human; details: human, SVG cells; Ara-C 20 μg/ml; read-out: decrease of cell viability (MTS)
# Protocol: (§1) Quantification of cell viability using the MTS [3-(4,5-dimethylthiazol-2-yl)-5-(3-carboxymethoxyphenyl)-2-(4-sulfophenyl)-2H-tetrazolium] assay is based on bioactivity of mitochondrial dehydrogenase in living cells, which converts colorless tetrazolium salt to a colored formazan. MTS assays were performed according to manufacturer's instructions (Promega, Madison Wis.). Briefly, culture medium was removed from cells and 50 μL of PBS was added into each well of a 96 well plate. Ten μL of MTS reagent were added to wells of cells, and to a well without cells to determine background. Mixtures were incubated at 37° C. for 2 hours and the absorbance was measured at 490 nm. Trypan blue staining was performed on identical cultures to correlate MTS values with cell viability. The final values indicated are the result from 3 replicates. The value for the non-treated control was set to 100% and all other values are represented as a percentage of the control. Alamar blue (AB) assay.
# (§2) Quantification of cell viability using the alamar blue (AB) assay was performed according to the manufacturer's instructions (Invitrogen, Gaithersburg, Md.). Briefly, 10 μL of AB reagent was added to each well of a 96 well dish containing cells or without cells to determine background. Mixtures were incubated at 37° C. for 6 hours and the absorbance measured at 570 nm using 600 nm as a reference wavelength. The value for the non-treated control was set to 100% and all other values are represented as a percentage of the control.
# (§3) Because cell density in cultures processed for in situ DNA hybridization could not be measured by MTS or AB assays, cell density was approximated in cell cultures processed by quantifying hematoxylin staining intensity. Coverslips containing cells were prepared for in situ DNA hybridization and co-stained with hematoxylin. Subsequently, each coverslip was scanned and the hematoxylin intensities quantified using ImageJ. To determine the total cell number per coverslip, images were acquired at 10 random positions at 100× magnification. Cells were counted throughout each image and the average cell number per slide was generated by averaging counts from the 10 images for each experimental group. Exactly 900 images at 100× magnification cover the surface of an 18 mm×18 mm coverslip.
# SVG cells = test: as above; format: cell-based, human; details: Ara-C 5 μg/ml
# Protocol: as §1, §2, §3
# Mad-4 JCV = test: JCV (Mad-4) initial infection of SVG cells (in situ DNA hybridization, qPCR); details: for decrease in percentage of cells containing JCV DNA: day 7
# [2] = Safety and pharmacokinetics of CMX001 in healthy volunteers; format: in vivo, human; details: blood, Human, analyte = label
# Protocol: An initial study was conducted to evaluate the safety and pharmacokinetics of CMX001 in healthy volunteers. The study consisted of a single dose arm (SD) and a multiple dose arm (MD). In the single dose arm 7 cohorts of 6 subjects were treated (4 subjects received active drug and 2 placebo). Enrollment was staggered as 2 subjects (one active, one placebo) followed by 4 subjects (Groups A and B). The estimated single doses for the two highest doses treated for a […] subject were 40 mg (0.6 mg/kg cohort 6) and 70 mg (1 mg/kg cohort 7). In the multiple dose arm, cohort 6MD received 0.1 mg/kg on Day 0, 6 and 12; Cohort 7MD received 0.2 mg/kg on Day 0, 6 and 12. Levels of cidofovir, CMX001 and CMX064 (major metabolite) were measured in blood and urine of subjects during the course of the study. Gastrointestinal (GI) monitoring of the subjects included (a) monitoring for clinical signs of GI adverse events, (b) monitoring for clinical symptoms using a visual Analog Scale, (c) monitoring for appetite loss/anorexia, nausea, vomiting, diarrhea, constipation and intestinal gas/bloating, (d) laboratory tests for fecal occult blood; serum electrolytes, urine specific gravity, BUN/creatinine ratio; serum albumin, and lipids, and (e) diagnostic studies (the Wireless capsule endoscopy (PillCam®, Given Imaging)).
# BK Virus = test: BK virus replication in RPTECs, viral DNA by qPCR after 5 days; format: cell-based; details: Betapolyomavirus hominis, RPTEC
# Protocol: To test the ability of CMX001 to inhibit replication of BK virus, stocks of BK virus were prepared in HFF cells and dilutions of the virus stocks were used to infect primary human renal tubular epithelial cells (RPTECs). Drug dilutions were then added to the wells containing the infected cells and the plates were incubated for 5 days. Total DNA was prepared from the plates and viral DNA was quantified by qPCR.
# HCMV = HCMV viral DNA accumulation in HFF cells, real time PCR, 7 days; format: cell-based; details: GCV 10 μM
# HCMV (AD169) = test: HCMV real time array of viral transcripts; format: cell-based; details: CDV 50 μM, GCV 15 μM, CMX001 0.5 μM; ANOVA P<0.05
# human PBMCs = test: Intracellular CDV-PP in human PBMCs; format: in vitro ADME
# Protocol: CMX001 increases cellular exposure to the active antiviral agent, cidofovir-diphosphate (CDV-PP). […] CDV-PP in PBMCs incubated for 48 hours with CMX001 or cidofovir.
# [3] = JC polyomavirus, read-out: reduction of JCV DNA containing cells, normalized to cell viability
molecule,measurement,setting,value
"Nc1nc2c(ncn2COCCO)c(=O)[nH]1 [Acyclovir, acyclovir]",EC50,"HSV-1; Human alphaherpesvirus 1, ACV resistant strain B-2006",> 100 µM
same,EC50,"HSV-1; Human alphaherpesvirus 1, ACV resistant strain DM2.1",> 100 µM
same,EC50,"HSV-1; Human alphaherpesvirus 1, ACV resistant strain PAAr5",13.6 ± 2.7 µM
same,EC50,"HSV-1; Human alphaherpesvirus 1, F (wild type), Table 9",1.9 ± 0.47 µM
same,EC50,"HSV-1; Human alphaherpesvirus 1, SC16, ACV resistant strain SC16-S1",> 100 µM
same,EC50,"HSV-1; Human alphaherpesvirus 1, read-out: EC50 range, panel of wild-type and ACV-resistant isolates of HSV-1 and HSV-2",≥ 2 µM
same,EC50,"HSV-1; Human alphaherpesvirus 1, strain F",0.35 ± 0.2 µM
same,EC50,"HSV-1; Human alphaherpesvirus 1, strain HL-3",3.8 ± 0.4 µM
same,EC50,"HSV-2; Human alphaherpesvirus 2, ACV resistant strain 11572",> 100 µM
same,EC50,"HSV-2; Human alphaherpesvirus 2, ACV resistant strain 11680",79 ± 10 µM
same,EC50,"HSV-2; Human alphaherpesvirus 2, ACV resistant strain 12247",> 100 µM
same,EC50,"HSV-2; Human alphaherpesvirus 2, ACV resistant strain AG-3",> 100 µM
same,EC50,"HSV-2; Human alphaherpesvirus 2, G (wild type), Table 9",2.1 ± 0.99 µM
same,EC50,"HSV-2; Human alphaherpesvirus 2, strain G",3.1 ± 3.5 µM
same,EC50,"HSV-2; Human alphaherpesvirus 2, strain MS",2.2 ± 0.8 µM
same,MDD,"HSV-2, strain MS; Acyclovir 3 mg/kg",9.0 ± 1.6
same,Mortality Number,"HSV-2, strain MS; Acyclovir 3 mg/kg",15/15
same,Mortality Percent,"HSV-2, strain MS; Acyclovir 3 mg/kg",100%
same,MDD,"HSV-2, strain MS; Acyclovir 10 mg/kg",11.1 ± 2.4
same,Mortality Number,"HSV-2, strain MS; Acyclovir 10 mg/kg",11/15
same,Mortality Percent,"HSV-2, strain MS; Acyclovir 10 mg/kg",79%
same,MDD,"HSV-2, strain MS; Acyclovir 30 mg/kg",10.7 ± 2.0
same,Mortality Number,"HSV-2, strain MS; Acyclovir 30 mg/kg",6/15
same,Mortality Percent,"HSV-2, strain MS; Acyclovir 30 mg/kg",40%
same,IC50,Adenovirus,> 100 µM
"Nc1ccn([C@@H]2O[C@H](CO)C(O)C2O)c(=O)n1 (stereo partly drawn) [Ara-C, Cytosine β-D-arabinofuranoside]",cytotoxicity at 20 μg/ml,[1],21%
same,cytotoxicity (MTS),SVG cells,did not cause cytotoxicity
same,decrease in percentage of cells containing JCV DNA,Mad-4 JCV; Ara-C 5 μg per mL,25%
same,decrease in percentage of cells containing JCV DNA,Mad-4 JCV; Ara-C 20 μg per mL,83%
same,inhibition at 5 µg/mL,Mad-4 JCV; [3],27%
same,inhibition at 20 µg/mL,Mad-4 JCV; [3],78%
Nc1ccn(C[C@@H](CO)OCP(=O)(O)OCCCOCCCC(=O)O)c(=O)n1 [CMX064],AUC,"[2]; 0.05 mg/kg, CMX001 0.050 mg/kg",39 ng·h/mL
same,Cmax,"[2]; 0.05 mg/kg, CMX001 0.050 mg/kg",4.63 ng/mL
same,AUC,"[2]; 0.1 mg/kg, CMX001 0.100 mg/kg",34 ng·h/mL
same,Cmax,"[2]; 0.1 mg/kg, CMX001 0.100 mg/kg",2.85 ng/mL
same,AUC,"[2]; 0.2 mg/kg, CMX001 0.200 mg/kg",39.7 ng·h/mL
same,Cmax,"[2]; 0.2 mg/kg, CMX001 0.200 mg/kg",4.55 ng/mL
same,AUC,"[2]; 0.4 mg/kg, CMX001 0.400 mg/kg",203 ng·h/mL
same,Cmax,"[2]; 0.4 mg/kg, CMX001 0.400 mg/kg",23 ng/mL
same,AUC,"[2]; 0.6 mg/kg, CMX001 0.600 mg/kg",187 ng·h/mL
same,Cmax,"[2]; 0.6 mg/kg, CMX001 0.600 mg/kg",24.9 ng/mL
same,AUC,[2]; CMX001 0.025 mg/kg,11.8 ng·h/mL
same,Cmax,[2]; CMX001 0.025 mg/kg,1.69 ng/mL
"Nc1nc(O)c2ncn(COC(CO)CO)c2n1 [ganciclovir, reference compound]",EC50,BK Virus; Virus Dilution 1:10,89 µM
same,EC50,BK Virus; Virus Dilution 1:50,> 100 µM
same,EC50,BK Virus; Virus Dilution 1:100,70.8 µM
same,fold reduction of accumulation of viral DNA,HCMV,less than 10 fold
same,levels of viral transcripts,HCMV (AD169),Significant reductions in levels of most viral transcripts
same,IC50,Adenovirus,4.5 to 33 µM
cidofovir diphosphate [CDV-PP],t1/2 for CDV-PP,human PBMCs; PBMCs incubated 48 hours with CMX001 or cidofovir (FIG. 40),156 h
same,t1/2 for CDV-PP,human PBMCs; incubation with CMX001 for 1 hour (FIG. 42),156 h
same,t1/2 for CDV-PP,human PBMCs; incubation with CMX001 for 48 hours (FIG. 41),93.6 h
